# The supplement of paper PMC10307832
# Key:
# Assay in all cases: relative viability (nuclei count vs DMSO), 5 days (fraction); higher = more cells survive
# Midostaurin + Vorinostat = compound: CO[C@@H]1[C@H](N(C)C(=O)c2ccccc2)C[C@H]2O[C@]1(C)n1c3ccccc3c3c4c(c5c6ccccc6n2c5c31)C(=O)NC4 [Midostaurin] + O=C(CCCCCCC(=O)Nc1ccccc1)NO [Vorinostat] (partner 1 µM)
# Procedure, shortened: (§1)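 One day after seeding in 1536-well plates, lung cancer cell lines were dosed by pin tool. Dosing was either single-drug or a fixed anchor-drug dose plus five library-drug doses (not always all listed) in √10 steps. After 5 days, nuclei were stained in one fix-and-stain step and counted on 4× images, and relative viability is the nuclei count of treated wells over that of vehicle wells, given as the median of duplicate plates.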
# [1] = compound: COc1cc(-c2nn([C@H]3CC[C@H](N4CCN(C(C)=O)CC4)CC3)c3ncnc(N)c23)ccc1NC(=O)c1cc2ccccc2n1C + COc1cccc2cc(-c3nc([C@H]4CC[C@H](C(=O)O)CC4)n4ncnc(N)c34)[nH]c12 [OSI-027] (partner 0.5 µM)
# Procedure, shortened: as §1
# [2] = compound: COc1cc(-c2nn([C@H]3CC[C@H](N4CCN(C(C)=O)CC4)CC3)c3ncnc(N)c23)ccc1NC(=O)c1cc2ccccc2n1C + O=C(CCCCCCC(=O)Nc1ccccc1)NO [Vorinostat] (partner 1 µM)
# Procedure, shortened: as §1
# [3] = compound: COc1cc(-c2nn([C@H]3CC[C@H](N4CCN(C(C)=O)CC4)CC3)c3ncnc(N)c23)ccc1NC(=O)c1cc2ccccc2n1C + C[C@]1(O)C[C@@H](c2nc(-c3ccc4ccc(-c5ccccc5)nc4c3)c3c(N)nccn32)C1 [Linsitinib] (partner 1 µM)
# Procedure, shortened: as §1
# [4] = compound: COc1cc(-c2nn([C@H]3CC[C@H](N4CCN(C(C)=O)CC4)CC3)c3ncnc(N)c23)ccc1NC(=O)c1cc2ccccc2n1C + Cc1nc(NC(=O)N2CCC[C@H]2C(N)=O)sc1-c1ccnc(C(C)(C)C(F)(F)F)c1 [Alpelisib] (partner 2 µM)
# Procedure, shortened: as §1
Cell Line,relative viability (Midostaurin + Vorinostat; first compound 0.01 µM),relative viability (Midostaurin + Vorinostat; first compound 0.03162 µM),relative viability (Midostaurin + Vorinostat; first compound 0.1 µM),relative viability (Midostaurin + Vorinostat; first compound 0.3162 µM),relative viability ([1]; first compound 0.0128 µM),relative viability ([1]; first compound 0.04048 µM),relative viability ([1]; first compound 0.128 µM),relative viability ([1]; first compound 1.28 µM),relative viability ([2]; first compound 0.0128 µM),relative viability ([2]; first compound 0.04048 µM),relative viability ([2]; first compound 0.128 µM),relative viability ([2]; first compound 1.28 µM),relative viability ([3]; first compound 0.0128 µM),relative viability ([3]; first compound 0.04048 µM),relative viability ([3]; first compound 0.128 µM),relative viability ([3]; first compound 1.28 µM),relative viability ([4]; first compound 0.0128 µM),relative viability ([4]; first compound 0.04048 µM),relative viability ([4]; first compound 0.128 µM),relative viability ([4]; first compound 1.28 µM)
NCI-H2342,0.741,0.764,0.836,0.831,0.521,0.706,0.644,0.493,0.762,0.758,0.861,0.825,–,–,–,–,–,–,–,–
HCC-15,0.942,0.806,0.785,0.765,0.832,0.463,0.616,0.586,0.954,0.752,0.85,0.698,0.922,0.807,0.815,0.662,0.963,0.886,0.864,0.662
A-427,0.883,0.887,0.848,0.937,0.497,–,0.456,0.45,0.9,0.972,0.763,0.856,1.16,1.08,1.07,0.963,1.15,0.959,1.01,0.908
NCI-H2228,0.878,0.424,0.716,0.356,0.706,0.637,0.573,0.45,0.869,0.609,0.568,0.527,0.54,0.883,0.649,0.643,0.774,0.793,0.692,0.45
NCI-H1734,0.796,0.818,0.855,0.467,0.659,0.551,0.613,0.485,0.873,0.787,0.783,0.852,0.847,0.772,0.873,0.717,0.684,0.636,0.716,0.573
PC-14,0.719,0.673,0.67,0.666,0.896,1.07,0.798,0.913,0.931,0.823,0.653,0.716,0.929,1.01,0.938,0.98,1.01,0.951,0.902,0.852
NCI-H1915,0.447,0.487,0.576,0.513,0.677,0.404,0.585,0.481,0.651,0.577,0.507,0.44,1.17,1.13,1.11,1.03,1.13,1.07,1.02,0.857
NCI-H1666,1.12,0.985,1.02,0.999,0.795,0.789,0.764,0.784,1.14,0.938,1.13,1.14,0.804,0.816,0.733,0.771,0.981,0.864,0.921,0.769
HCC-366,0.364,0.306,0.308,0.0688,0.803,0.347,0.882,0.772,0.432,0.361,0.346,0.451,0.531,0.513,0.531,0.257,0.444,0.374,0.418,0.259
SK-MES-1,1.07,0.968,0.982,1.08,0.685,0.665,0.583,0.562,1.17,1.14,1.08,1.13,1.13,1.17,1.07,1.06,0.972,0.872,0.789,0.668
SW 1573,0.717,1.09,0.732,1.02,0.68,0.691,0.624,0.466,0.805,0.735,0.817,0.723,0.706,0.72,0.63,0.598,0.788,0.508,0.695,0.509
NCI-H661,0.777,0.72,0.792,0.739,0.721,0.722,0.691,0.575,0.761,0.971,0.819,1.01,0.618,0.507,0.448,0.357,0.418,0.526,0.729,0.376
PC-3 [JPC-3],0.776,0.788,0.68,1.07,0.817,0.817,0.77,0.771,0.667,0.989,0.808,1.01,1.02,0.957,0.966,0.997,1.04,1.09,1.04,1.09
NCI-H1623,–,–,–,–,0.422,0.342,0.399,0.37,–,–,–,–,–,–,–,–,–,–,–,–
Calu-6,–,–,–,–,–,–,–,–,–,–,–,–,0.901,0.657,0.858,0.785,0.927,0.936,0.943,0.829
LC-2-ad,0.692,0.644,0.775,0.459,0.932,0.776,0.864,0.691,0.857,0.742,0.703,0.703,0.659,0.846,0.835,0.681,1.01,0.931,0.872,0.699
CAL-12T,0.689,0.742,0.734,0.457,0.638,0.497,0.7,0.461,0.871,0.706,0.702,0.753,0.851,0.533,0.801,0.74,1.32,1.25,1.34,0.998

Cell Line,relative viability (Midostaurin + Vorinostat; first compound 0.01 µM),relative viability (Midostaurin + Vorinostat; first compound 0.03162 µM),relative viability (Midostaurin + Vorinostat; first compound 0.1 µM),relative viability (Midostaurin + Vorinostat; first compound 0.3162 µM),relative viability ([1]; first compound 0.0128 µM),relative viability ([1]; first compound 0.04048 µM),relative viability ([1]; first compound 0.128 µM),relative viability ([1]; first compound 1.28 µM),relative viability ([2]; first compound 0.0128 µM),relative viability ([2]; first compound 0.04048 µM),relative viability ([2]; first compound 0.128 µM),relative viability ([2]; first compound 1.28 µM),relative viability ([3]; first compound 0.0128 µM),relative viability ([3]; first compound 0.04048 µM),relative viability ([3]; first compound 0.128 µM),relative viability ([3]; first compound 1.28 µM),relative viability ([4]; first compound 0.0128 µM),relative viability ([4]; first compound 0.04048 µM),relative viability ([4]; first compound 0.128 µM),relative viability ([4]; first compound 1.28 µM)
RERF-LC-KJ,0.715,0.709,0.67,0.646,0.634,0.536,0.581,0.569,0.754,0.737,0.75,0.619,0.895,0.882,0.878,0.793,0.811,0.717,0.555,0.654
NCI-H1650,0.57,0.606,0.585,0.793,0.54,0.707,0.492,0.577,0.575,0.829,0.663,0.578,–,–,–,–,–,–,–,–
BEN,0.594,0.552,0.707,0.598,0.27,0.296,0.311,0.291,0.591,0.561,0.59,0.483,0.815,0.926,0.851,0.644,0.972,1.15,0.865,0.642
EMC-BAC-2,0.415,0.437,0.407,0.476,0.347,0.531,0.385,0.352,0.466,0.602,0.418,0.504,0.869,0.806,0.815,0.521,0.749,0.743,0.696,0.514
LU99A,0.672,0.433,0.454,0.479,0.307,0.323,0.329,0.312,0.609,0.523,0.426,0.628,0.555,0.563,0.543,0.524,0.464,0.565,0.534,0.521
NCI-H2170,0.857,0.843,0.774,0.699,0.81,0.468,0.701,0.687,1.09,0.969,0.8,0.704,–,–,–,–,0.891,0.789,0.82,0.686
NCI-H1299,–,–,–,–,–,–,–,–,–,–,–,–,1.01,0.871,0.999,0.655,1.1,1.11,1.06,1.08
EBC-1,–,–,–,–,–,–,–,–,–,–,–,–,0.77,0.959,0.898,0.896,0.823,0.785,0.723,0.732
NCI-H1648,0.534,–,–,0.497,0.27,0.257,0.274,0.276,0.536,0.48,0.526,0.341,–,–,–,–,–,–,–,–
NCI-H1792,–,–,–,–,0.736,0.523,0.689,0.558,–,–,–,–,0.565,0.485,0.392,0.449,0.78,0.593,0.719,0.55
ChaGo-K-1,0.746,0.811,0.619,0.714,0.607,0.532,0.519,0.464,0.802,0.768,0.679,0.555,–,–,–,–,–,–,–,–
A549,–,–,–,–,–,–,–,–,–,–,–,–,0.552,0.666,0.619,0.465,0.739,0.774,0.862,0.57
NCI-H1563,–,–,–,–,0.711,0.86,0.848,0.59,–,–,–,–,1.24,1.12,1.31,0.903,0.876,0.918,0.998,0.865
NCI-H522,0.862,1.18,0.827,1.03,0.8,0.725,0.812,0.651,0.898,0.946,0.823,0.79,–,–,–,–,–,–,–,–
IA-LM,0.822,0.889,0.943,0.907,–,–,–,–,1.07,0.877,0.79,0.912,0.606,0.299,0.698,0.815,0.838,0.803,0.783,0.84
NCI-H1703,–,–,–,–,–,–,–,–,–,–,–,–,0.984,0.193,0.637,0.323,0.372,0.243,0.228,0.157
SW 900,0.402,0.502,0.52,0.458,0.536,0.588,0.497,0.356,0.806,0.582,0.511,0.621,–,–,–,–,–,–,–,–
